Consider two compounds from patent US6479549B2, “Carnosic acid derivatives for promoting synthesis of nerve growth factor” (Nagase & Company, Ltd., priority 2000, dated 2002).

The subject of test [1] is Human glioblastoma cells (T98G cell line). Briefly: NGF content in culture supernatant of T98G cells (sandwich enzyme immunoassay). Type of test: cell-based. The settings on record: for NGF Content in sample solution: 100 uM effective ingredient in Opti-MEM medium, T98G cells, 4 days cultivation, mean ± standard deviation, comparative example (none) 6.3 ± 1.2; for Relative NGF content: 100 uM, ratio of NGF content in example solution to that in comparative example solution (=1.0). The procedure:
Human glioblastoma cells (T98G cell line) were seeded in a MEM medium containing fetal bovine serum (10%; Gibco), sodium pyruvate (x 1; Gibco) and nonessential amino acids (x 1; Gibco) in wells of a flat-bottom 96-well plate (Corning), in a cell density of 2×10^4/well, and cultivated in a CO2 incubator (37° C., 5% CO2) for 3 days. The medium was then replaced by an Opti-MEM medium (containing 5 mg/ml of bovine serum albumin). The cultivation was continued for further 6 days with replacing the medium at intervals of 3 days.
After removing the medium, an Opti-MEM medium (containing 5 mg/ml of bovine serum albumin) containing 100 uM (micromole) of carnosic acid diacetate obtained in Example 1 was added to each well in an amount of 50 ul (microliter)/well, and the cultivation was continued for further 4 days. After the cultivation, the supernatant was taken as a sample solution.
On the other hand, 1 ug/ml of an anti-NGF antibody (Promega) solution (50 ul) was added to each well of a 96-well microplate (Nunc), and the plate was allowed to stand overnight at 4° C. After washing the plate with PBS(-) (Nissui Pharmaceuticals), 1% of a bovine serum albumin (Sigma) solution (100 ul) was added to each well of the plate and the plate was allowed to stand at room temperature for 4 hrs to block the plate. […]
Subsequently, 0.4 unit/ml of a beta-galactosidase-labeled anti-NGF antibody (Boehringer Mannheim) solution (50 ul) was added to each well of the plate, and allowed to react at room temperature for one hour. […] The fluorescence intensity of 4-methylumbelliferone produced was measured on a fluorescence plate reader, and the content of NGF contained in the sample solution was determined using a standard curve obtained from a standard solution (human beta-NGF; PEPRO TECH EC).
The content of NGF contained in the sample solution was determined as described in Example 4, except that an Opti-MEM medium (containing 5 mg/ml of bovine serum albumin) containing 100 uM of carnosic acid diacetate methyl ester obtained in Example 2 was used in an amount of 50 ul/well, instead of carnosic acid diacetate.
The content of NGF contained in the sample solution was determined as described in Example 4, except that an Opti-MEM medium (containing 5 mg/ml of bovine serum albumin) containing 100 uM of carnosic acid methyl ester obtained in Example 3 was used inan amount of 50 ul/well, instead of carnosic acid diacetate.
The content of NGF contained in the sample solution was determined as described in Example 4, except that an Opti-MEM medium (containing 5 mg/ml of bovine serum albumin) not containing carnosic acid diacetate was used in an amount of 50 ul/well, instead of the Opti-MEM medium containing carnosic acid diacetate.

The next test deals with Wistar male rats. The test is described as follows: Ethanol-induced stomach ulcers in rats (ulcer index). It is filed as in vivo. The settings on record: 10 mg/kg body weight oral. The procedure: To Wistar male rats (5 rats per group) of 180-200 g body weight fasted for 24 hours before the start of a test, carnosic acid diacetate obtained in Example 1 was orally administered in a dose level of 10 mg per kg body weight, after suspending it in water. After 30 minutes of the administration, 1 ml of ethanol (99.5%) was orally administered to each rat. After one hour of the ethanol administration, laparotomy was carried out and the lengths of all ulcers developed in the stomach were measured arld added up. The total lengths of ulcers are taken as ulcer indexes.
The lengths of all ulcers developed in the stomach were measured and added up as described in Example 7, except that water containing carnosic acid methyl ester (10 mg per kg body weight) was used instead of water containing carnosic acid diacetate. The total lengths of ulcers are taken as ulcer indexes.
The lengths of all ulcers developed in the stomach were measured and added up as described in Example 7, except that water not containing carnosic acid diacetate was used instead of water containing carnosic acid diacetate. The total lengths of ulcers are taken as ulcer indexes.

Turning to `COC(=O)[C@@]12CCCC(C)(C)[C@H]1CCc1cc(C(C)C)c(OC(C)=O)c(OC(C)=O)c12` [Carnosic acid diacetate methyl ester, carnosic acid diacetate methyl ester], in test [1], the “NGF Content in sample solution” value came to 50.6 ± 4.3 pg/mL and the “Relative NGF content” value was 8.0.
Consider `COC(=O)[C@]12CCCC(C)(C)C1CCc1cc(C(C)C)c(O)c(O)c12` (stereo partly drawn) [Carnosic acid methyl ester, carnosic acid methyl ester], for which, in test [1], the “NGF Content in sample solution” value is 33.3 ± 2.8 pg/mL and the “Relative NGF content” value was determined as 5.3. In the test with Wistar male rats (30 minutes before 1 ml ethanol (99.5%) oral, total length of stomach ulcers 1 hour after ethanol, mean ± standard deviation, comparative example 62.4), this compound gave a Ulcer index of 33.6 ± 3.6 mm. Besides, the Relative ulcer index in the test on Wistar male rats (ratio of ulcer index in example to that in comparative example 2 (=100)) is on record as 53.8.
